Assay results: patent US20160280651A1, “COMPOUNDS THAT INDUCE ABA RESPONSES” (THE REGENTS OF THE UNIVERSITY OF CALIFORNIA, priority 2013, published 2016)

Assays:
GmNAC4 and GmbZIP1 = experiment: Quantitative RT-PCR of ABA-responsive genes in soybean; format: in vivo
Description: (§1) FIG. 13A-FIG. 13E. LC66C6 modulates ABA responses in diverse species. Germination inhibition (A) and transpirational water loss in detached leaves 2-hours after detachment (B) in response to compounds shown. The expression of ABA-responsive marker genes in Soybean (C), Barley (D) and Maize (E) after application of chemicals. D, P, L and A indicate DMSO, pyrabactin, LC66C6 and (+)-ABA, respectively.
(§2) Total RNA was isolated using Plant RNA purification reagent (Invitrogen, USA) according to the manufacturer's instructions. cDNA was synthesized from 1 μg of total RNA using the QantiTec reverse transcription kit (Qiagen, USA). Real-time PCR using Maxima® SYBR Green/Fluorescein qPCR Master Mix (Fermentas) was performed with the iQ5 real-time PCR detection system (Bio-Rad, Hercules, Calif.). The relative amounts of target mRNAs were determined using the relative standard curve method and were normalized by relative amount of internal control mRNA. Biological triplicate experiments were performed.

[1] = tested on: MAPKKK18 promoter::GUS reporter; experiment: MAPKKK18 promoter::GUS ABA-responsive reporter gene assay; format: in vivo, Arabidopsis; conditions: guard cells, vascular tissues of leaves and roots, radicle tips of imbibed seeds
Experimental: Existing ABA-responsive promoter-GUS fusions are, in our experience, not ideal due to either high background levels or relatively low induction levels in response to ABA. […] We therefore characterized the effects of agonists on MAPKKK18 promoter::GUS reporter transgenic plants. GUS staining was performed in a reaction buffer of the following composition: 50 mM sodium phosphate buffer pH 7.0, 0.05% Tween-20, 2.5 mM potassium ferrocyanide, 2.5 mM potassium ferricyanide, 1 mM X-gluc. The reaction buffer was vacuum infiltrated into test samples for 10 min two times and then incubated at 37° C. for 5 h. The reaction was stopped by washing the samples with 70% ethanol, and chlorophyll pigments bleached by incubation at 65° C.

Arabidopsis plants = experiment: Stomatal aperture measurement; format: in vivo; conditions: wild-type, aba2 and abi1-1; 25 μM spray
Experimental: Physiological assays were performed on Arabidopsis plants grown at 22±2° C. and relative humidity (RH) 45±10% under a 16/8-h light/dark cycle. For transpirational water loss analyses in Arabidopsis, plants were pre-treated by aerosol spray of 4 ml solution containing 25 μM compound and 0.05% Tween-20. 12 4-week old plants were sprayed per compound or control analyzed. After overnight pre-treatment with compounds, the aerial portions were detached from roots, and their fresh weight measured at 20 min intervals over a 2 hour time period. To measure stomatal aperture, plants were pre-treated with compounds as described above, covered with plastic lids to maintain high RH and after overnight pre-treatment leaf epidermal impressions were obtained using Suzuki's Universal Micro-Printing (SUMP) method using SUMP impression solution with SUMP B plates (SUMP Laboratory). The leaf impressions were analyzed by light microscopy and stomatal apertures were determined from the pore widths using ImageJ 1.43v software (National Institutes of Health, USA). […] Pots were covered in Parafilm to so that the water loss measured was transpiration mediated. Soil water content % was determined by measuring pot weight and computed by removing dry soil weight from total weight.

soybean plants = experiment: Soybean drought stress assay; format: in vivo; conditions: 50 μM, aerosol every 3 days
Experimental: FIG. 8A-FIG. 8B. Quinabactin confers drought stress tolerance to wild-type plants. (A) Effect of quinabactin on Arabidopsis drought tolerance. Two-week-old plants were subjected to drought stress by withholding water and were photographed after 12 days. During the drought period, plants were treated every 3 days with 25 μM compound. Plants were re-hydrated after 2 weeks drought treatment; the number of surviving plants (out of total number tested) for each treatment is shown next to each image. (B) Effects of quinabactin on soybean. Two-week-old plants were subjected to drought stress by withholding water and photographed after 8 days drought treatment. […]
Physiological assays were performed on Arabidopsis plants grown at 22±2° C. and relative humidity (RH) 45±10% under a 16/8-h light/dark cycle. […] 12 4-week old plants were sprayed per compound or control analyzed. After overnight pre-treatment with compounds, the aerial portions were detached from roots, and their fresh weight measured at 20 min intervals over a 2 hour time period. […] The leaf impressions were analyzed by light microscopy and stomatal apertures were determined from the pore widths using ImageJ 1.43v software (National Institutes of Health, USA). […] Pots were covered in Parafilm to so that the water loss measured was transpiration mediated. […]

ZmRab17 and ZmLEA = experiment: Quantitative RT-PCR of ABA-responsive genes in maize; format: in vivo
Description: as §1, §2

Arabidopsis seedlings = experiment: Root growth and plant growth inhibition of Arabidopsis seedlings; format: in vivo
Experimental: FIG. 6A-FIG. 6C. LC66C6 inhibits plant growth. (A) Photographs showing the effect of ABA, Pyrabactin and LC66C6 on the wild type, abi1-1 and PYR/PYL quadruple mutant Arabidopsis genotypes. (B) Root growth inhibition and (C) plant growth inhibition by ABA, LC66C6 and pyrabactin. Two day old seedlings were transferred on ½×MS plate containing chemicals and phenotypes scored or photographed after a 5-day incubation on test compounds.

CCCN1C(=O)CCc2cc(NS(=O)(=O)Cc3ccc(C)cc3)ccc21 [LC66C6]
Expression of ABA-responsive genes GmNAC4 and GmbZIP1 (GmNAC4 and GmbZIP1): strongly induces | Tissue pattern of reporter gene expression [1]: induces expression of reporter genes in the same tissues as (+)-ABA | Stomatal closure (Arabidopsis plants): induces stomatal closure in wild-type and the aba2 mutant, but not in the abi1-1 mutant | Drought stress tolerance (soybean plants): confers drought stress tolerance similar to that conferred by treatment with (+)-ABA | Expression of ABA-responsive genes ZmRab17 and ZmLEA (ZmRab17 and ZmLEA): weakly induces | Inhibition of plant growth (Arabidopsis seedlings; wild-type and mutant plants): significantly greater than the inhibition by pyrabactin, and comparable to that of (+)-ABA | Inhibition of root elongation (Arabidopsis seedlings; wild-type, abi1 and quadruple mutant, all concentrations tested): comparable to or slightly more effective than (+)-ABA
